Experimental data reported in US20150057246A1, “SILYL-CONTAINING HETEROCYCLIC COMPOUNDS AND METHODS OF USE THEREOF FOR THE TREATMENT OF VIRAL DISEASES” (priority 2012, published 2015).
Like-named read-outs stand apart in the source and are kept apart here.

How the values were obtained:
HCV 1b replicon = test: Cell-based HCV replicon assay (TaqMan), genotype 1b replicon; conditions: HCV genotype 1b replicon cells, replicon RNA by real time PCR, day 3, EC90 = concentration for ΔCT=3.2 over baseline
Method: (§1) Measurement of inhibition by compounds of the present invention was performed using the HCV replicon system. Several different replicons encoding different HCV genotypes or mutations were used. In addition, potency measurements were made using different formats of the replicon assay, including different ways of measurements and different plating formats. See Jan M. Vrolijk et al., A replicons-based bioassay for the measurement of interferons in patients with chronic hepatitis C, 110 J. VIROLOGICAL METHODS 201 (2003); Steven S. Carroll et al., Inhibition of Hepatitis C Virus RNA Replication by 2′-Modified Nucleoside Analogs, 278(14) J. BIOLOGICAL CHEMISTRY 11979 (2003). However, the underlying principles are common to all of these determinations, and are outlined below.
(§2) TaqMan®-Based Assay Protocol:
(§3) Compounds of the present invention were assayed for cell-based anti-HCV activity using the following protocol. Replicon cells were seeded at 5000 cells/well in 96-well collagen I-coated Nunc plates in the presence of the test compound. Various concentrations of test compound, typically in 10 serial 2-fold dilutions, were added to the assay mixture, with the starting concentration ranging from 250 μM to 1 μM. The final concentration of DMSO was 0.5%, fetal bovine serum was 5%, in the assay media. Cells were harvested on day 3 by the addition of 1× cell lysis buffer (Ambion cat #8721). The replicon RNA level was measured using real time PCR (TaqMan® assay). The amplicon was located in 5B. The PCR primers were: 5B.2F, ATGGACAGGCGCCCTGA (SEQ. ID NO. 1); 5B.2R, […] (SEQ. ID NO. 2); the probe sequence was FAM-labeled CACGCCATGCGCTGCGG (SEQ. ID NO. 3). GAPDH RNA was used as endogenous control and was amplified in the same reaction as NS5B (multiplex PCR) using primers and VIC-labeled probe recommended by the manufacturer (PE Applied Biosystem). The real-time […] reactions were run on ABI PRISM 7900HT Sequence Detection System using the following program: 48° C. for 30 minutes, 95° C. for 10 minutes, 40 cycles of 95° C. for 15 sec, 60° C. for 1 minute. The ΔCT values (CT5B-CTGAPDH) were plotted against the concentration of test compound and fitted to the sigmoid dose-response model using XLfit4 (MDL). EC50 was defined as the concentration of inhibitor necessary to achieve ΔCT=1 over the projected baseline; EC90 the concentration necessary to achieve ΔCT=3.2 over the baseline. Alternatively, to quantitate the absolute amount of replicon RNA, a standard curve was established by including serially diluted T7 transcripts of replicon RNA in the Taqman assay. All TaqMan® reagents were from PE Applied Biosystems. Such an assay procedure was described in detail in e.g. Malcolm et al., Antimicrobial Agents and Chemotherapy 50: 1013-1020 (2006).
(§4) HCV replicon EC50 assay data for various replicons and mutants was calculated for selected compounds of the present invention using this method and is provided in the tables above herein.

HCV 1a replicon = test: Cell-based HCV replicon assay (TaqMan), genotype 1a replicon; conditions: HCV genotype 1a replicon cells, replicon RNA by real time PCR, day 3, EC90 = concentration for ΔCT=3.2 over baseline
Method: as §1, §2, §3, §4

HCV 1a Y93H replicon = test: Cell-based HCV replicon assay (TaqMan), 1a Y93H mutant replicon; conditions: EC90 = concentration for ΔCT=3.2 over baseline
Method: as §1, §2, §3, §4

HCV 2b replicon = test: Cell-based HCV replicon assay (TaqMan), genotype 2b replicon; conditions: EC90 = concentration for ΔCT=3.2 over baseline
Method: as §1, §2, §3, §4

[1] = read-out: 1a Y93H EC90, HCV 1a Y93H mutant replicon cells, replicon RNA by real time PCR, day 3
[2] = Hepatitis C virus, 72 h, read-out: 1a Y93H EC90, HCV 1a Y93H mutant replicon cells, replicon RNA by real time PCR, day 3
[3] = Hepatitis C virus, 72 h, read-out: 2b EC90, HCV genotype 2b replicon cells, replicon RNA by real time PCR, day 3
[4] = read-out: 2b EC90, HCV genotype 2b replicon cells, replicon RNA by real time PCR, day 3

| Compound | EC90 (HCV 1b replicon) | EC90 (HCV 1a replicon) | EC90 (HCV 1a Y93H replicon; [1]) | EC90 (HCV 1b replicon; Hepatitis C virus, 72 h) | EC90 (HCV 1a replicon; Hepatitis C virus, 72 h) | EC90 (HCV 1a Y93H replicon; [2]) | EC90 (HCV 2b replicon; [3]) | EC90 (HCV 2b replicon; [4]) |
| --- | --- | --- | --- | --- | --- | --- | --- | --- |
| COC(=O)N[C@H](C(=O)N1C[Si](C)(C)C[C@H]1c1nc2ccc3cc(-c4ccc(-c5cnc([C@@H]6C[C@H]7C[C@H]7N6C(=O)[C@@H](NC(=O)OC)C(C)C)[nH]5)cc4)ccc3c2[nH]1)C(C)C [Compound 12] | 0.001 nM | 0.006 nM | > 100 nM | – | – | – | – | – |
| COC(=O)N[C@H](C(=O)N1CCC[C@H]1c1ncc(-c2ccc(-c3ccc4c(ccc5nc([C@@H]6C[Si](C)(C)CN6C(=O)[C@@H](NC(=O)OC)C(C)C)[nH]c54)c3)cc2)[nH]1)C(C)C [Compound 5] | – | – | – | 0.006 nM | 0.012 nM | 181 nM | – | – |
| COC(=O)N[C@H](C(=O)N1C[C@H](O)C[C@H]1c1ncc(-c2ccc(-c3ccc4c(ccc5nc([C@@H]6C[Si](C)(C)CN6C(=O)[C@@H](NC(=O)OC)C(C)C)[nH]c54)c3)cc2)[nH]1)C(C)C [Compound 11] | – | – | – | 0.008 nM | 0.26 nM | 152 nM | – | – |
| COC(=O)N[C@H](C(=O)N1C[Si](C)(C)C[C@H]1c1ncc(-c2ccc(-c3ccc4c(ccc5nc([C@@H]6CCCN6C(=O)[C@@H](NC(=O)OC)C(C)C)[nH]c54)c3)cc2)[nH]1)C(C)C [Compound 3] | – | – | – | 0.006 nM | 0.031 nM | 280 nM | – | – |
| COC(=O)N[C@H](C(=O)N1CC(F)(F)C[C@H]1c1nc2ccc3cc(-c4ccc5c(ccc6nc([C@@H]7C[Si](C)(C)CN7C(=O)[C@@H](NC(=O)OC)C(C)C)[nH]c65)c4)ccc3c2[nH]1)C(C)C [Compound 9] | – | – | – | 0.007 nM | 0.02 nM | 169 nM | – | – |
| COC(=O)N[C@H](C(=O)N1C[C@H](F)C[C@H]1c1ncc(-c2ccc(-c3ccc4c(ccc5nc([C@@H]6C[Si](C)(C)CN6C(=O)[C@@H](NC(=O)OC)C(C)C)[nH]c54)c3)cc2)[nH]1)C(C)C [Compound 10] | – | – | – | 0.009 nM | 0.15 nM | 92 nM | – | – |
| COC(=O)N[C@H](C(=O)N1C[Si](C)(C)C[C@H]1c1nc2ccc3cc(-c4ccc(-c5cnc([C@@H]6CCCN6C(=O)[C@@H](NC(=O)OC)C(C)(C)OC)[nH]5)cc4)ccc3c2[nH]1)C(C)C [Compound 86] | – | – | – | – | 0.77 nM | > 1000 nM | 389 nM | – |
| COC(=O)N[C@H](C(=O)N1C[Si](C)(C)C[C@H]1c1nc2ccc3cc(-c4ccc(-c5cnc([C@@H]6CCCN6C(=O)[C@@H](NC(=O)OC)[C@@H](C)O)[nH]5)cc4)ccc3c2[nH]1)C(C)C [Compound 87] | – | – | – | – | 0.67 nM | > 1000 nM | 81.7 nM | – |
| COC(=O)N[C@H](C(=O)N1C[Si](C)(C)C[C@H]1c1nc2ccc3cc(-c4ccc(-c5[nH]c([C@@H]6C[C@H]7C[C@H]7N6C(=O)[C@@H](NC(=O)OC)C6CCOCC6)nc5Cl)cc4)ccc3c2[nH]1)C1CCOCC1 [Compound 103] | – | – | – | – | 0.082 nM | 16.1 nM | 2.85 nM | – |
| COC(=O)N[C@H](C(=O)N1CCC[C@H]1c1ncc(-c2ccc(-c3ccc4c(ccc5nc([C@@H]6C[Si](C)(C)CN6C(=O)[C@H]6COCCN6C(=O)OC)[nH]c54)c3)cc2)[nH]1)C(C)C [Compound 63] | – | – | – | – | 5.1 nM | > 1000 nM | > 1000 nM | – |
| COC(=O)N[C@@H](Cc1cccc(O)c1)C(=O)N1C[Si](C)(C)C[C@H]1c1nc2ccc3cc(-c4ccc(-c5cnc([C@@H]6CCCN6C(=O)[C@@H](NC(=O)OC)C(C)C)[nH]5)cc4)ccc3c2[nH]1 [Compound 61] | – | – | – | – | 0.33 nM | > 1000 nM | 37 nM | – |
| COC(=O)N[C@H](C(=O)N1C[Si](C)(C)C[C@H]1c1nc2ccc3cc(-c4ccc(-c5cnc([C@@H]6CCCN6C(=O)[C@@H](NC(=O)OC)[C@@H](C)OC)[nH]5)cc4)ccc3c2[nH]1)C(C)C [Compound 89] | – | – | – | – | 0.28 nM | > 1000 nM | > 1000 nM | – |
| CCC(C)[C@H](NC(=O)OC)C(=O)N1CCC[C@H]1c1ncc(-c2ccc(-c3ccc4c(ccc5nc([C@@H]6C[Si](C)(C)CN6C(=O)[C@@H](NC(=O)OC)C(C)CC)[nH]c54)c3)cc2)[nH]1 (stereo partly drawn) [Compound 20] | – | – | – | – | 0.063 nM | > 100 nM | > 100 nM | – |
| CC[C@H](C)[C@H](NC(=O)OC)C(=O)N1C[Si](C)(C)C[C@H]1c1ncc(-c2ccc(-c3ccc4c(ccc5nc([C@@H]6CCCN6C(=O)[C@@H](NC(=O)OC)[C@@H](C)CC)[nH]c54)c3)cc2)[nH]1 [Compound 47] | – | 0.59 nM | 953 nM | – | – | – | – | 578 nM |
| COC(=O)N[C@H](C(=O)N1CCC[C@H]1c1ncc(-c2ccc(-c3ccc4c(ccc5nc([C@@H]6C[Si](C)(C)CN6C(=O)[C@@H](NC(=O)OC)C6CCCC6)[nH]c54)c3)cc2)[nH]1)C(C)C [Compound 58] | – | – | – | – | 0.45 nM | 580 nM | 265 nM | – |
| CC[C@H](C)[C@H](NC(=O)OC)C(=O)N1C[Si](C)(C)C[C@H]1c1ncc(-c2ccc(-c3ccc4c(ccc5nc([C@@H]6CCCN6C(=O)[C@@H](NC(=O)OC)[C@@H](C)CC)[nH]c54)c3)cc2)[nH]1 [Compound 41] | – | 0.19 nM | – | – | – | 614 nM | – | 271 nM |
| COC(=O)N[C@@H](Cn1ncnn1)C(=O)N1C[Si](C)(C)C[C@H]1c1nc2ccc3cc(-c4ccc(-c5cnc([C@@H]6CCCN6C(=O)[C@@H](NC(=O)OC)C(C)C)[nH]5)cc4)ccc3c2[nH]1 [Compound 62] | – | – | – | – | 0.22 nM | > 1000 nM | 91 nM | – |
| COC(=O)N[C@@H](Cc1ccccc1)C(=O)N1C[Si](C)(C)C[C@H]1c1ncc(-c2ccc(-c3ccc4c(ccc5nc([C@@H]6CCCN6C(=O)[C@H](Cc6ccccc6)NC(=O)OC)[nH]c54)c3)cc2)[nH]1 [Compound 46] | – | – | – | – | 4.75 nM | > 1000 nM | > 1000 nM | – |
| CC(C)(C)OC(=O)N1C[Si](C)(C)C[C@H]1c1nc2ccc3cc(-c4ccc(-c5[nH]c([C@@H]6C[C@H]7C[C@H]7N6C(=O)OC(C)(C)C)nc5Cl)cc4)ccc3c2[nH]1 [Compound 100] | – | – | – | – | > 1000 nM | > 1000 nM | > 1000 nM | – |
| COC(=O)N[C@H](C(=O)N1C[Si](C)(C)C[C@H]1c1ncc(-c2ccc(-c3ccc4c(ccc5nc([C@@H]6CCCN6C(=O)[C@@H](NC(=O)OC)[C@@H](C)OC)[nH]c54)c3)cc2)[nH]1)[C@@H](C)OC [Compound 36] | – | – | – | – | 0.152 nM | 276 nM | > 1000 nM | – |
| CCCC(NC(=O)OC)C(=O)N1C[Si](C)(C)C[C@H]1c1ncc(-c2ccc(-c3ccc4c(ccc5nc([C@@H]6CCCN6C(=O)[C@H](CCC)NC(=O)OC)[nH]c54)c3)cc2)[nH]1 (stereo partly drawn) [Compound 48] | – | – | – | – | 0.64 nM | 761 nM | 882 nM | – |
